Experimental data from PMC8047729, “Identification of a nanomolar affinity α-synuclein fibril imaging probe by ultra-high throughput in silico screening” (Chemical Science, 2020).
“Also recorded” adds a separate entry of the source.

Tests used:
[1] = molecular target: T1, αS fibrils, Site 2 ([^3H]Tg-190b) (Homo sapiens, UniProt P37840); assay: Competition binding assay with Site 2 radioligand [^3H]Tg-190b on αS fibrils; conditions: αS fibrils 100 nM, [^3H]Tg-190b 6 nM, 1 h 37 °C; 95% confidence intervals in parentheses in Table 1 (n = 3)
Description: (§1) Fig. S10 Screening of SAR Library Derived from Compound 6. Site 2 radioligand competition binding assays with [3H]Tg-190b. ANOVA was performed with Dunnett’s multiple comparisons test, where […]
(§2) *P<0.0332, **P<0.0021, ***P<0.0002 and ****P<0.0001.
(§3) Competition binding assay. αS fibrils (100 nM for Site 2 and 50 nM for Site 9) were mixed with Site 2 ligand [3H]Tg-190b (6 nM) or Site 9 ligand [3H]BF2846 (3 nM) and varying concentrations of unlabeled compounds 2, 6, 24, 28, 31, 39, 40, or 52. Compounds were diluted in 50 mM Tris-HCl buffer (pH 7.4) and mixed with fibrils and radioligand in a total volume of 150 µL. Total binding was measured in the absence of competitor and nonspecific binding was determined in reactions containing unlabeled Tg-190b (1 µM) or BF2846 (0.5 µM). In a duplicate set of binding […]
(§4) binding to the filter paper. Reactions were incubated at 37 °C for 1 h. After incubation, bound […]
(§5) Filters containing the bound ligand were mixed with 3 mL of scintillation cocktail (MicroScint-20, PerkinElmer) and counted after 12 h of incubation on a MicroBeta System (PerkinElmer). All data points were acquired in triplicate.
(§6) (1 picture or pasted object on this page, not shown here)
(§7) The measured cpm values were converted to % specific binding as described by the equation […]
(§8) % specific binding = !"#$"#% "# ’() *+),)#-) ./ -.0*)’"’.+1#.#,*)-"/"- !"#$"#% ∗ 100 ’.’23 !"#$"#%1#.#,*)-"/"- !"#$"#%
(§9) IC50 values were calculated by fitting the data to Equation S1 below by non-linear regression, using GraphPad Prism software:
(§10) Y = Bottom + (Top-Bottom) / (1+ 10(813.%9:;<)) (S1) where logIC50 is the log of the concentration of competitor that results in binding half-way between Bottom and Top; Top and Bottom are plateaus in the units of Y axis; they are binding observed in the absence of competitor and in the presence of a maximal concentration of competitor, respectively. Binding curves for compounds 2 and 6 are shown in Fig. 2 in the main text and for compounds 6, 24, 28, 31, 39, 40, and 52 in Figs. S11 and S12.

[2] = molecular target: T1, αS fibrils, Site 2 ([^3H]Tg-190b); assay: Single-concentration radioligand competition screen (100 nM compound) against [^3H]Tg-190b; assay type: binding; conditions: 100 nM αS fibrils, [^3H]Tg-190b 6 nM
Description: Compounds 1–17 were purchased from vendors that were listed on the ZINC15 compound library. […] Total binding was measured in the absence of competitor and nonspecific binding was determined in reactions containing unlabeled Tg-190b (1 μM) or BF2846 (0.5 μM). […] Filters containing the bound ligand were mixed with 3 mL of scintillation cocktail (MicroScint-20, PerkinElmer, Inc.) and counted after 12 h of incubation on a MicroBeta System (PerkinElmer, Inc.). All data points were measured in triplicate. Screening of compounds 18–56 for the SAR study was performed in a similar fashion.
In Vitro Radioligand Binding Assays
Screening compound library. Compounds 1-17 (Fig. S8) were purchased from vendors that were listed on the ZINC15 compound library. 3 Compounds were screened for αS binding and after identifying the lead compound, 6, the core structure of compound 6 and its pyrazole or oxadiazole derivatives were used for similarity search on the Mcule, Inc. website.12 The similarity threshold was set to higher than 0.8, then compound 18-56 (Fig. S9) were chosen and ordered from the four companies mentioned above.
In order to screen the purchased compounds for αS binding, 100 nM solutions of each compound (1-56) were incubated for 1 hour at 37 °C with 100 nM αS fibrils and [3H]Tg-190b (6 nM) or [3H]BF2846 (3 nM) in 50 mM Tris-HCl, pH 7.4. Total binding was measured in the absence of competitor and nonspecific binding was determined in reactions containing unlabeled Tg-190b (1 µM) or BF2846 (0.5 µM). After incubation, bound and free radioligand were […]
scintillation cocktail (MicroScint-20, PerkinElmer; Waltham, MA, USA) and counted after 12 h of incubation on a MicroBeta System (PerkinElmer). All data points were acquired in triplicate.
Percentage of bound radioligand relative to total binding was plotted and data was analyzed by One-Way ANOVA, comparing the mean of each data set to the mean of total binding. […]
are shown in Fig. 2 in the main text, and Fig. S8 and S10.

αS aggregation = αS aggregation (Homo sapiens, UniProt P37840); assay: αS aggregation fluorescence polarization experiment; assay type: biochemical; conditions: 10 and 100 μM compound, 100 μM αS monomer with 1% labeled αS
Description: (§11) Fluorescence Polarization and Photo -Crosslinking Assays
(§12) Aggregation and disaggregation fluorescence polarization experiments. Wild-type and αS with a fluorescein maleimide attached via Cys114 mutation were produced as previously described.10 Aggregations were performed at a total monomer concentration of 100 μM with 1% labeled αS in 20 mM Tris, 100 NaCl pH 7.4 in the presence of 10 and 100 μM compound 6 and with equivalent volume of DMSO as a control. At each timepoint, an aliquot of the fibrilization reaction was removed and diluted 10-fold in buffer. Fluorescence polarization (FP) was measured in a Greiner black 96 half-area well microplate (Greiner Bio-One North America Inc.; Monroe, NC, USA) at a total volume of 50 μL on a Tecan F200 plate reader (San Jose, CA, USA).
Aggregations were performed in triplicate. […]
Fig. S4 Impact of Compound 6 on αS Aggregation. Aggregation of αS in the presence of 1% labeled monomer along with (light-green) 10 and (dark-green) 100 μM compound 6 monitored by (a) fluorescence polarization (FP) and (b) Congo Red absorbance. Aggregation in the presence of compound was compared to aggregation in the presence of volume matched addition of DMSO for (grey) 10 and (black) 100 μM […]
10 and (black) 100 μM compound administration was used as a negative control. […]

[3] = molecular target: αS fibrils, Site 9 ([^3H]BF2846) (Homo sapiens, UniProt P37840); assay: Competition binding assay with Site 9 radioligand [^3H]BF2846 on αS fibrils; conditions: αS fibrils 50 nM, [^3H]BF2846 3 nM, 1 h 37 °C; 95% confidence intervals in parentheses (n = 3)
Description: as §1, §2, §3, §4, §5, §6, §7, §8, §9, §10

αS fibrils [4] = molecular target: T2, αS fibrils (Homo sapiens, UniProt P37840); assay: αS fibril disaggregation (stability) fluorescence polarization experiment; assay type: biochemical; conditions: 10 μM labeled fibrils; compound 6 at 10 and 100 μM, EGCG and NDGA at 100 μM
Description: as §11, §12
Aggregations were performed in triplicate.
Disaggregation experiments were performed on labeled fibril samples prepared as described above in the absence of compound. A final concentration of 10 μM fibrils was added to each well for each disaggregation experiment and compound 6, nordihydroguaiaretic acid (NDGA), epigallocatechin gallate (EGCG) or DMSO (1%) was added just prior to measurement to the final concentrations detailed in Fig. S3 and total volumes of 50 μL. Samples were shaken at 149 rpm at room temperature with FP measurements taken every 150 s. EGCG and NDGA […]
Fig. S5 Impact of Compound 6 on αS Fibril Stability. Assessment of potential remodeling of 1% labeled αS fibrils by (light-green) 10 and (dark-green) 100 μM compound 6 compared to (red) 100 μM EGCG and (blue) 100 μM NDGA as a positive control. DMSO administration volume-matched to that used for (grey) 10 and (black) 100 μM compound administration was used as a negative control. […]

αS fibrils [5] = molecular target: T2, αS fibrils

IC50 [1] [nM]	Binding in Site 2 radioligand competition screen (in words) [2]	IC50 [3] [nM]	Structure (SMILES)	other results
490			Cc1ccc(N2CCN(c3cnn(-c4ccccc4)c(=O)c3Cl)CC2)cc1C [Compound 2]	
9.49	high affinity	109	Cc1ccc(OCC(=O)Nc2cc(-c3ccc(F)cc3)no2)cc1C [Compound 6]	Effect on rate of αS aggregation (αS aggregation): No significant effect; also recorded: did not show any significant effect; Effect on stability of αS fibrils (αS fibrils [4]): no apparent effect; also recorded: did not show any significant effect
	moderate to strong binding		COc1ccc(OCC(=O)Nc2cc(-c3ccc(C)cc3)no2)cc1 [Compound 19]	
	bind poorly		CC(Oc1ccc(F)cc1)C(=O)Nc1cc(-c2ccccc2)no1 (stereo not drawn) [Compound 23]	
95.1	moderate to strong binding	557	COc1ccc(OCC(=O)Nc2cc(-c3ccccc3)no2)cc1 [Compound 24]	
	weak binders		O=C(COc1ccc(F)cc1)Nc1cc(-c2ccccc2)no1 [Compound 25]	
	hinder binding		COc1ccccc1OCC(=O)Nc1cc(-c2ccccc2)no1 [Compound 27]	
	moderate to strong binding	12.6	Cc1ccc(OCC(=O)Nc2cc(-c3ccc(Br)cc3)no2)cc1C [Compound 28]	
68.7	moderate to strong binding	37	COc1ccc(OCC(=O)Nc2cc(-c3ccc(Br)cc3)no2)cc1 [Compound 31]	
	moderate to strong binding		COc1ccc(OCC(=O)Nc2cc(-c3ccc(F)cc3)no2)cc1 [Compound 34]	
95.7	moderate to strong binding	> 1000	COc1ccc(OCC(=O)Nc2cc(-c3ccc(F)c(F)c3)no2)cc1 [Compound 39]	
19.6	moderate to strong binding	> 1000	Cc1ccc(OCC(=O)Nc2cc(-c3ccc(F)c(F)c3)no2)cc1C [Compound 40]	
30.7	moderate to strong binding	> 1000	Cc1ccc(OCC(=O)Nc2cc(-c3ccccc3)no2)cc1C [Compound 52]	
	moderate affinity		O=C(COc1ccc(F)cc1)Nc1cc(-c2ccccc2)n[nH]1 [Compound 55]	
			Cc1ccc(OCC(=O)Nc2cc(-c3ccc(I)cc3)no2)cc1C [Compound 61]	Kd (αS fibrils [5]): 1 nM; Selectivity for αS fibrils over amyloid β (Aβ42 fibrils) (αS fibrils [5]; from saturation binding Kd values): ~5 fold
			O=C(O[C@@H]1Cc2c(O)cc(O)cc2O[C@@H]1c1cc(O)c(O)c(O)c1)c1cc(O)c(O)c(O)c1 [EGCG, epigallocatechin gallate, reference compound]	Effect on stability of αS fibrils (αS fibrils [4]): disrupted fibril stability
			CC(Cc1ccc(O)c(O)c1)C(C)Cc1ccc(O)c(O)c1 (stereo not drawn) [NDGA, nordihydroguaiaretic acid, reference compound]	Effect on stability of αS fibrils (αS fibrils [4]): disrupted fibril stability

Structure (SMILES)	IC50 [1] [nM]	Binding in Site 2 radioligand competition screen (in words) [2]	IC50 [3] [nM]	other results
COc1ccc(OCC(=O)Nc2noc(-c3ccccc3)n2)cc1 [Compound 48]		bound more poorly than the corresponding isoxazole compound		
O=C(COc1ccc(F)cc1)Nc1noc(-c2ccccc2)n1 [Compound 50]		bound more poorly than the corresponding isoxazole compound; also recorded: weak binders		
O=C(COc1ccccc1)Nc1noc(-c2ccccc2)n1 [Compound 51]		bound more poorly than the corresponding isoxazole compound		
